Test results: patent US20030203410A1, “Gestational agents which modulate cell proliferation” (priority 1999, published 2003)
Converted amounts (≈) assume the structure as drawn.

Columns and labels:
Herpes Simplex Type I = experiment: Inhibition of viral cytopathic effect (visual CPE and neutral red), HSV-1 in MRC-5 cells; type: cell-based, type 1 herpes (HSV-1); conditions: for EC50: EXPT EV/H1C2
in vitro [1] = conditions: human
Vaccinia Virus = experiment: microbe, parasite or virus in culture; type: cell-based; conditions: for EC50: Orthopoxvirus vaccinia, EXPT EV/VC2
in vitro [2] = conditions: African green monkey
San Angelo Virus = experiment: microbe, parasite or virus in culture; type: cell-based
Simian Rotavirus = experiment: Inhibition of viral cytopathic effect (visual CPE and neutral red), simian rotavirus in MA104 cells; type: cell-based; conditions: for EC50: Rotavirus A, EXPT EV/RtC2
[3] = test system: Venezuelan Equine Encephalitis; experiment: microbe, parasite or virus in culture; type: cell-based, Venezuelan equine encephalitis virus; conditions: for EC50: Venezuelan equine encephalitis virus, EXPT EV/VEC4
[4] = test system: African green monkey kidney (Vero) cells
in vitro [5] = conditions: African green monkey; remark: listed apart in the source
in vitro [6] = conditions: African green monkey; remark: listed apart in the source
in vitro [7] = conditions: African green monkey; remark: listed apart in the source

Nc1nc2c(ncn2COCCO)c(=O)[nH]1 [Acyclovir, acyclovir]
EC50 (Herpes Simplex Type I; Human alphaherpesvirus 1, MRC5, neutral red assay): 0.4 µg/mL (≈ 1.78 µM) | EC50 (Herpes Simplex Type I; Human alphaherpesvirus 1, MRC5, visual CPE): 0.6 µg/mL (≈ 2.66 µM) | COMMENT (Herpes Simplex Type I; neutral red assay): Excellent activity. | COMMENT (Herpes Simplex Type I; visual): Excellent activity. | CC50 (in vitro [1]): > 100 µg/mL

Nc1ccn(C[C@@H](CO)OCP(=O)(O)O)c(=O)n1 [HPMPC, cidofovir]
EC50 (Vaccinia Virus; CV-1, neutral red assay): 1.7 µg/mL (≈ 6.09 µM) | EC50 (Vaccinia Virus; CV-1, visual CPE): 5.4 µg/mL (≈ 19.3 µM) | COMMENT (Vaccinia Virus; neutral red assay): Excellent activity. | COMMENT (Vaccinia Virus; visual): Very good activity. | CC50 (in vitro [2]): > 100 µg/mL

NC(=O)c1ncn([C@@H]2O[C@H](CO)[C@@H](O)[C@H]2O)n1 [Ribavirin, ribavirin]
COMMENT (San Angelo Virus): Very good activity. | EC50 (San Angelo Virus; San Angelo virus, Vero): 30 µg/mL (≈ 123 µM) | EC50 (Simian Rotavirus; MA104, neutral red assay): 56 µg/mL (≈ 229 µM) | EC50 (Simian Rotavirus; MA104, visual CPE): 18 µg/mL (≈ 73.7 µM) | COMMENT (Simian Rotavirus; neutral red assay): Slight activity. | COMMENT (Simian Rotavirus; visual): Moderate activity. | EC50 ([3]; MA104, neutral red assay, neutral red data questionable): > 100 µg/mL | EC50 ([3]; MA104, visual CPE): 7.6 µg/mL (≈ 31.1 µM) | COMMENT ([3]; visual): Very good activity. | CC50 [4]: 530 µg/mL (≈ 2170 µM) | CC50 (in vitro [5]): 560 µg/mL (≈ 2290 µM) | CC50 (in vitro [6]): > 100 µg/mL | CC50 (in vitro [7]): > 100 µg/mL
